# Data published in the supplement of paper PMC8960247.
# Counter-ions that a name gives are not always drawn. ± gives the standard error.
# What was measured:
# 621-103 (TSC2-rescued) = experiment: relative viability vs DMSO; higher = less cytotoxic; conditions: serum: 10% FBS, 72 h
# 621-102 (TSC2-deficient) = experiment: as above; conditions: serum: 10% FBS, 72 h
# 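Also: immortalized renal angiomyolipoma cells stably carrying empty vector or TSC2, dosed in 384-well plates in DMEM, viability normalized to vehicle-treated wells within each plate.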
SMILES,relative viability (621-103 (TSC2-rescued); 0.0001 µM) [%],relative viability (621-103 (TSC2-rescued); 0.001 µM) [%],relative viability (621-103 (TSC2-rescued); 0.01 µM) [%],relative viability (621-103 (TSC2-rescued); 0.1 µM) [%],relative viability (621-103 (TSC2-rescued); 1 µM) [%],relative viability (621-103 (TSC2-rescued); 10 µM) [%],relative viability (621-102 (TSC2-deficient); 0.0001 µM) [%],relative viability (621-102 (TSC2-deficient); 0.001 µM) [%],relative viability (621-102 (TSC2-deficient); 0.01 µM) [%],relative viability (621-102 (TSC2-deficient); 0.1 µM) [%],relative viability (621-102 (TSC2-deficient); 1 µM) [%],relative viability (621-102 (TSC2-deficient); 10 µM) [%]
Nc1ccccc1NC(=O)c1ccc(CNC(=O)OCc2cccnc2)cc1 [MS-275],100.1 ± 0.8,99.4 ± 1.4,98.42 ± 0.37,95.9 ± 1.2,81.09 ± 0.74,39.1 ± 0.61,103 ± 3.7,109.1 ± 0.37,96.5 ± 1,82.7 ± 3.8,83 ± 2.6,64.11 ± 0.47
COC(=O)C1=C(C)NC(C)=C(C(=O)OCCN2CCN(C(c3ccccc3)c3ccccc3)CC2)C1c1cccc([N+](=O)[O-])c1 (stereo unspecified) [Manidipine HCl (CV-4093)],90.9 ± 2,90 ± 1.3,98 ± 1.7,100.85 ± 0.1,89.9 ± 1.2,74.2 ± 1.2,110.7 ± 1,110.4 ± 0.56,104.3 ± 0.49,109 ± 2,107 ± 4,94.55 ± 0.56
COC(=O)C1=C(C)NC(C)=C(C(=O)OCCN2CCN(C(c3ccccc3)c3ccccc3)CC2)C1c1cccc([N+](=O)[O-])c1 (stereo unspecified) [Manidipine],109 ± 3.1,108 ± 2.9,106 ± 2,108 ± 2.5,103 ± 2.2,101 ± 6.2,101 ± 4,102 ± 1.7,99.9 ± 1.5,97.7 ± 1.7,93.8 ± 1.4,96.95 ± 0.61
CNCCCC12CCC(c3ccccc31)c1ccccc12 [Maprotiline HCl],101 ± 1.2,102 ± 1.2,99.43 ± 0.5,95.4 ± 4.2,87.6 ± 2.2,64.61 ± 0.13,124.2 ± 0.15,114 ± 4.2,109 ± 5.4,107 ± 3.5,107.1 ± 0.36,82.2 ± 3.8
Cc1nnc(C(C)C)n1[C@H]1C[C@H]2CC[C@@H](C1)N2CC[C@H](NC(=O)C1CCC(F)(F)CC1)c1ccccc1 [Maraviroc (Selzentry)],100.6 ± 0.78,101 ± 2.7,99.264 ± 0.066,103 ± 2.9,98.1 ± 1.4,97.2 ± 1.1,94.8 ± 3.3,106 ± 1.5,107 ± 2.3,101 ± 2.6,108.3 ± 0.76,107 ± 1.8
Cc1ccc(NC(=O)c2ccc(CN3CCN(C)CC3)cc2)cc1Nc1nc(-c2cccnc2)cs1 [Masitinib (AB1010)],104.3 ± 0.28,105 ± 1.6,107.1 ± 0.95,103 ± 2.9,104 ± 1.3,36.5 ± 2.2,116 ± 1.7,103 ± 4.6,103 ± 6.5,115.4 ± 0.45,107 ± 2.1,53.4 ± 14
Cc1[nH]c(=O)c(C#N)cc1-c1ccncc1 [Milrinone (Primacor)],95.74 ± 0.27,91.11 ± 0.53,95.5 ± 9.2,91.8 ± 3.8,91.27 ± 0.77,89.3 ± 2.9,109 ± 3.1,114 ± 2.9,110 ± 2,103.33 ± 0.049,107 ± 3.9,107 ± 1.4
O=C1c2c(O)ccc(O)c2C(=O)c2c(NCCNCCO)ccc(NCCNCCO)c21 [Mitoxantrone],94.9 ± 2.3,87.32 ± 0.1,90.41 ± 0.1,36.95 ± 0.31,8.71 ± 0.34,3.19 ± 0.27,79.5 ± 1.5,70.5 ± 3.2,65.8 ± 4.4,33.21 ± 0.054,5.07 ± 0.86,2.13 ± 0.16
NC(=O)c1ncn([C@@H]2O[C@H](CO)[C@@H](O)[C@H]2O)c1O [Mizoribine],104.1 ± 0.62,99.8 ± 2,99.1 ± 2.2,105 ± 3.8,98.1 ± 2.5,97.4 ± 2.2,102 ± 2.1,98.3 ± 1.2,102 ± 1.2,100.8 ± 0.97,99.9 ± 2.9,92.9 ± 2.9
N=C(N)NC(=N)N1CCOCC1 [Moroxydine],87.36 ± 0.38,86.9 ± 5.6,96.1 ± 4.8,92.5 ± 0.95,92.6 ± 2.9,86.5 ± 2.3,109 ± 1.8,111 ± 1.4,111 ± 4.4,107 ± 1.3,109.9 ± 0.84,99.87 ± 0.55
CC1(C)CNc2cc(NC(=O)c3cccnc3NCc3ccncc3)ccc21 [Motesanib DiPhosphate],94.7 ± 3.1,102.6 ± 0.75,102.5 ± 0.75,102 ± 1.3,93 ± 1.9,98 ± 1.7,104 ± 1.8,119 ± 1.9,115.2 ± 1.1,110 ± 3,104 ± 2.7,107 ± 2
FC(F)(F)c1ccc(/C=C/c2nc(COc3ccc(CCCCn4ccnn4)cc3)co2)cc1 [Mubritinib (TAK 165)],112 ± 3.3,106 ± 2,104 ± 2.1,112 ± 1.4,107 ± 2.1,115 ± 1.7,106 ± 3.2,105.09 ± 0.037,97.5 ± 1.1,103 ± 2.6,107 ± 1.2,110.2 ± 1.1
CC(C)(C)c1[nH]cnc1/C=c1\[nH]c(=O)/c(=C/c2ccccc2)[nH]c1=O [NPI-2358],86.9 ± 4.1,45.4 ± 0.88,62 ± 1.6,36.2 ± 0.99,32.4 ± 0.92,33.1 ± 0.41,88.4 ± 2.1,50.4 ± 2,55.9 ± 1.8,42 ± 0.5,36.5 ± 2,41.3 ± 2.3
CC(C)(Cc1ccc2ccccc2c1)NC[C@@H](O)COc1cccc(Cl)c1C#N [NPS-2143],111 ± 4.1,102 ± 2.2,107 ± 1.8,114 ± 2.6,106.7 ± 0.6,1.29 ± 0.19,83.2 ± 5.7,93.6 ± 6.1,100 ± 2.8,97.6 ± 1.3,79.52 ± 0.42,1 ± 0.14
CCNC(=O)c1noc(-c2cc(C(C)C)c(O)cc2O)c1-c1ccc(CN2CCOCC2)cc1 [NVP-AUY922],17.5 ± 0.57,6.795 ± 0.067,6.22 ± 0.57,5.21 ± 0.31,4.92 ± 0.055,6.99 ± 0.21,35.4 ± 3.1,33 ± 1.4,22.2 ± 0.39,20.32 ± 0.026,23 ± 0.25,21.6 ± 1.3
CCNC(=O)c1cc2c(-c3cc(OCCN4CCCC4)c(Cl)cc3Cl)nc(N)nc2s1 [NVP-BEP800],101 ± 2.1,99.72 ± 0.67,99.48 ± 0.53,107 ± 2,43.99 ± 0.26,4.6 ± 0.3,97.39 ± 0.18,102 ± 6.3,107 ± 5.5,102 ± 1.2,56.1 ± 4,19.3 ± 1.1
Fc1cc(-c2cccc3ncc(-c4cnn(C5CCNCC5)c4)nc23)cc(F)c1CN1CCOCC1 [NVP-BSK805 dihydrochloride],88.7 ± 5.9,102 ± 1.9,111 ± 4.3,104 ± 4.5,77.1 ± 0.88,4.07 ± 1.5,102 ± 3.5,99.9 ± 4,101 ± 2.5,103 ± 1.4,89.2 ± 9.6,4.33 ± 1.8
COc1cc(N2CCC(N3CCN(C)CC3)CC2)ccc1Nc1ncc(Cl)c(Nc2ccccc2S(=O)(=O)C(C)C)n1 [NVP-TAE684],98.4 ± 2.6,99.6 ± 1.4,99.8 ± 2,99.27 ± 0.36,75.2 ± 3.5,1.56 ± 0.21,105.9 ± 0.18,105 ± 2.5,100.1 ± 0.29,97.9 ± 2.6,80.8 ± 1.4,3.88 ± 1.5
COc1ccccc1N1CCN(CC(O)COc2cccc3ccccc23)CC1 (stereo unspecified) [Naftopidil Dihydrochloride],110 ± 0.54,97.8 ± 11,106.7 ± 0.54,106 ± 3.4,104 ± 1.7,108 ± 4.8,103 ± 5.6,109 ± 1.6,108.5 ± 0.88,106 ± 1.2,105.81 ± 0.046,110 ± 5
COc1ccccc1N1CCN(CC(O)COc2cccc3ccccc23)CC1 (stereo unspecified) [Naftopidil],114 ± 4.2,111.6 ± 0.22,112 ± 1.2,108 ± 1.9,102.2 ± 0.57,107 ± 2.7,106 ± 5.7,99.4 ± 2.5,101.3 ± 0.6,106 ± 5,104.5 ± 1,97.38 ± 0.86
c1ccc2c(CC3=NCCN3)cccc2c1 [Naphazoline HCl],103 ± 2,105.1 ± 0.24,103 ± 1.7,99.2 ± 5.5,104 ± 0.12,101.3 ± 0.62,122 ± 2.4,109 ± 2.6,117 ± 3,111 ± 3.6,106.3 ± 0.15,112 ± 1.5
OC(CNCC(O)C1CCc2cc(F)ccc2O1)C1CCc2cc(F)ccc2O1 (stereo unspecified) [Nebivolol HCl],86.6 ± 8.6,116.1 ± 0.89,114.3 ± 0.92,120 ± 2.8,108 ± 4.2,36.4 ± 5.6,81.745 ± 0.015,103 ± 2.9,106 ± 1.1,118 ± 7.1,106 ± 2.9,77.1 ± 11
CN(C)C(=O)Oc1cccc([N+](C)(C)C)c1 [Neostigmine bromide (Prostigmin)],92.6 ± 3.7,93.3 ± 2.9,93.6 ± 1.3,95.7 ± 2.7,93.8 ± 2.1,92.44 ± 0.58,103 ± 4.6,114 ± 3,104.2 ± 0.97,102 ± 7.2,102 ± 6,101.3 ± 0.82
CCOc1cc2ncc(C#N)c(Nc3ccc(OCc4ccccn4)c(Cl)c3)c2cc1NC(=O)/C=C/CN(C)C [Neratinib],101.7 ± 0.83,99.12 ± 0.5,100.4 ± 0.55,96 ± 2.1,67.12 ± 0.38,41.08 ± 0.095,110 ± 1.2,103 ± 1.1,117.5 ± 0.44,103.9 ± 0.36,88.058 ± 0.084,50.9 ± 0.56
Cc1cn(-c2cc(NC(=O)c3ccc(C)c(Nc4nccc(-c5cccnc5)n4)c3)cc(C(F)(F)F)c2)cn1 [Nilotinib],82.55 ± 0.76,82.1 ± 1.1,89 ± 1.5,90.4 ± 1.4,84.5 ± 4.6,7.52 ± 0.28,70 ± 0.81,71.8 ± 7.4,70.7 ± 6.9,96.2 ± 7.2,93 ± 6.9,18.9 ± 7.6
COC(=O)C1=C(C)NC(C)=C(C(=O)OCC(C)C)C1c1ccccc1[N+](=O)[O-] (stereo unspecified) [Nisoldipine],110 ± 5.8,109 ± 7.6,108 ± 4,111 ± 6.1,100 ± 2.3,67.8 ± 4.5,100 ± 4.6,95.6 ± 4.7,104.6 ± 0.62,106.7 ± 0.045,111 ± 2.9,65.91 ± 0.65
CNC(=C[N+](=O)[O-])NCCSCc1csc(CN(C)C)n1 [Nizatidine],102.5 ± 0.9,92.2 ± 3.2,101 ± 4.2,97.2 ± 1.6,102 ± 3.1,98.5 ± 4.4,102 ± 3,100.7 ± 0.45,101 ± 2.1,95.8 ± 1.8,106 ± 3.8,103 ± 1.6
CO[C@@H]1[C@@H](OC(N)=O)[C@@H](O)[C@H](Oc2ccc3c(O)c(NC(=O)c4ccc(O)c(CC=C(C)C)c4)c(=O)oc3c2C)OC1(C)C [Novobiocin sodium (Albamycin)],104 ± 1.3,104.4 ± 0.12,102 ± 3.3,98.6 ± 2.8,105 ± 4.4,98.5 ± 3.8,97.5 ± 4.2,94.9 ± 2.2,99 ± 4,112 ± 1.2,107 ± 6.3,105 ± 4.1
